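Step 1: Grow cells in 96-well plates. Step 2: Expose to compound for 48 hours at 5 concentrations. Step 3: Interpolate endpoints linearly; if unreached, use highest concentration. At the GI50, growth is halved.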 Calls of active or inactive are those of the source. No stated cut-off is given here; in the data, active = GI50 up to about 1.1 µM and inactive = higher.
What was measured:
Test in all cases: NCI anticancer screen, dose series, 48 h
KM-20L2 = tested on: KM-20L2
M19-MEL = tested on: M19-MEL
OVCAR-3 = tested on: OVCAR-3
CAKI-1 = tested on: CAKI-1
A498 = tested on: A498
HCT-116 = tested on: HCT-116
LXFL 529 = tested on: LXFL 529
DMS-114 = tested on: DMS-114
SNB-78 = tested on: SNB-78
XF498 = tested on: XF498
RXF 631 = tested on: RXF 631
MOLT-4 = tested on: MOLT-4
SNB-75 = tested on: SNB-75
M14 = tested on: M14
HL-60 = tested on: HL-60
NCI-H522 = tested on: NCI-H522
K562 = tested on: K562
HCT-15 = tested on: HCT-15
HOP-18 = tested on: HOP-18
SN12C = tested on: SN12C
OVCAR-5 = tested on: OVCAR-5
A549 = tested on: A549
SF-295 = tested on: SF-295
786-0 = tested on: 786-0
DMS-273 = tested on: DMS-273
SF-539 = tested on: SF-539
RXF 393 = tested on: RXF 393
NCI-H226 = tested on: NCI-H226
SK-OV-3 = tested on: SK-OV-3
IGROV-1 = tested on: IGROV-1
HCC 2998 = tested on: HCC 2998
HOP-62 = tested on: HOP-62
TK-10 = tested on: TK-10
ACHN = tested on: ACHN
NCI-H460 = tested on: NCI-H460
UO-31 = tested on: UO-31
SF-268 = tested on: SF-268
OVCAR-8 = tested on: OVCAR-8
HT-29 = tested on: HT-29
OVCAR-4 = tested on: OVCAR-4
RPMI-8226 = tested on: RPMI-8226
Malme-3M = tested on: Malme-3M
KM12 = tested on: KM12
NCI-H23 = tested on: NCI-H23
SNB-19 = tested on: SNB-19
UACC-62 = tested on: UACC-62
EKVX = tested on: EKVX
COLO 205 = tested on: COLO 205
SW-620 = tested on: SW-620
SK-MEL-5 = tested on: SK-MEL-5
UACC-257 = tested on: UACC-257
CCRF-CEM = tested on: CCRF-CEM
U-251 = tested on: U-251
SK-MEL-2 = tested on: SK-MEL-2
HOP-92 = tested on: HOP-92
LOX IMVI = tested on: LOX IMVI
SK-MEL-28 = tested on: SK-MEL-28

C[S+](C)CCOC(=O)C(=[N+]=[N-])c1ccc([N+](=O)[O-])cc1
GI50 (KM-20L2): > 100 µM (inactive)
GI50 (M19-MEL): > 100 µM (inactive)
GI50 (OVCAR-3): > 100 µM (inactive)
GI50 (CAKI-1): > 100 µM (inactive)
GI50 (A498): > 100 µM (inactive)
GI50 (HCT-116): > 100 µM (inactive)
GI50 (LXFL 529): > 100 µM (inactive)
GI50 (DMS-114): > 100 µM (inactive)
GI50 (SNB-78): > 100 µM (inactive)
GI50 (XF498): > 100 µM (inactive)
GI50 (RXF 631): > 100 µM (inactive)
GI50 (MOLT-4): > 100 µM (inactive)
GI50 (SNB-75): > 100 µM (inactive)
GI50 (M14): > 100 µM (inactive)
GI50 (HL-60): > 100 µM (inactive)
GI50 (NCI-H522): > 100 µM (inactive)
GI50 (K562): > 100 µM (inactive)
GI50 (HCT-15): > 100 µM
GI50 (HOP-18): > 100 µM (inactive)
GI50 (SN12C): > 100 µM (inactive)
GI50 (OVCAR-5): > 100 µM (inactive)
GI50 (A549): > 100 µM (inactive)
GI50 (SF-295): > 100 µM (inactive)
GI50 (786-0): > 100 µM (inactive)
GI50 (DMS-273): > 100 µM (inactive)
GI50 (SF-539): > 100 µM (inactive)
GI50 (RXF 393): > 100 µM (inactive)
GI50 (NCI-H226): > 100 µM (inactive)
GI50 (SK-OV-3): > 100 µM (inactive)
GI50 (IGROV-1): > 100 µM (inactive)
GI50 (HCC 2998): > 100 µM (inactive)
GI50 (HOP-62): > 100 µM (inactive)
GI50 (TK-10): > 100 µM (inactive)
GI50 (ACHN): > 100 µM (inactive)
GI50 (NCI-H460): > 100 µM (inactive)
GI50 (UO-31): > 100 µM (inactive)
GI50 (SF-268): > 100 µM (inactive)
GI50 (OVCAR-8): > 100 µM (inactive)
GI50 (HT-29): > 100 µM (inactive)
GI50 (OVCAR-4): > 100 µM (inactive)
GI50 (RPMI-8226): > 100 µM (inactive)
GI50 (Malme-3M): > 100 µM (inactive)
GI50 (KM12): > 100 µM (inactive)
GI50 (NCI-H23): > 100 µM (inactive)
GI50 (SNB-19): > 100 µM (inactive)
GI50 (UACC-62): > 100 µM (inactive)
GI50 (EKVX): > 100 µM (inactive)
GI50 (COLO 205): > 100 µM (inactive)
GI50 (SW-620): > 100 µM (inactive)
GI50 (SK-MEL-5): > 100 µM (inactive)
GI50 (UACC-257): > 100 µM (inactive)
GI50 (CCRF-CEM): > 100 µM (inactive)
GI50 (U-251): > 100 µM (inactive)
GI50 (SK-MEL-2): > 100 µM (inactive)

CC1=N/C(=C/c2ccc3c(c2)OCO3)C(=O)O1
GI50 (KM-20L2): > 100 µM (inactive)
GI50 (M19-MEL): > 100 µM (inactive)
GI50 (OVCAR-3): > 100 µM (inactive)
GI50 (CAKI-1): > 100 µM (inactive)
GI50 (A498): > 100 µM (inactive)
GI50 (HCT-116): > 100 µM (inactive)
GI50 (LXFL 529): > 100 µM (inactive)
GI50 (DMS-114): > 100 µM (inactive)
GI50 (SNB-78): > 100 µM (inactive)
GI50 (XF498): > 100 µM (inactive)
GI50 (RXF 631): > 100 µM (inactive)
GI50 (MOLT-4): > 100 µM (inactive)
GI50 (SNB-75): > 100 µM (inactive)
GI50 (M14): > 100 µM (inactive)
GI50 (HOP-92): > 100 µM (inactive)
GI50 (NCI-H522): > 100 µM (inactive)
GI50 (K562): > 100 µM (inactive)
GI50 (HCT-15): > 100 µM
GI50 (HOP-18): > 100 µM (inactive)
GI50 (SN12C): > 100 µM (inactive)
GI50 (OVCAR-5): > 100 µM (inactive)
GI50 (A549): > 100 µM (inactive)
GI50 (786-0): > 100 µM (inactive)
GI50 (DMS-273): > 100 µM (inactive)
GI50 (SF-539): > 100 µM (inactive)
GI50 (RXF 393): > 100 µM (inactive)
GI50 (LOX IMVI): > 100 µM (inactive)
GI50 (SK-OV-3): > 100 µM (inactive)
GI50 (IGROV-1): > 100 µM (inactive)
GI50 (TK-10): > 100 µM (inactive)
GI50 (ACHN): > 100 µM (inactive)
GI50 (UO-31): > 100 µM (inactive)
GI50 (SF-268): > 100 µM (inactive)
GI50 (OVCAR-8): > 100 µM (inactive)
GI50 (HT-29): > 100 µM (inactive)
GI50 (OVCAR-4): > 100 µM (inactive)
GI50 (RPMI-8226): > 100 µM (inactive)
GI50 (Malme-3M): > 100 µM (inactive)
GI50 (KM12): > 100 µM (inactive)
GI50 (SK-MEL-28): > 100 µM (inactive)
GI50 (NCI-H23): > 100 µM (inactive)
GI50 (SNB-19): > 100 µM (inactive)
GI50 (UACC-62): > 100 µM (inactive)
GI50 (EKVX): > 100 µM (inactive)
GI50 (COLO 205): > 100 µM (inactive)
GI50 (SW-620): > 100 µM (inactive)
GI50 (SK-MEL-5): > 100 µM (inactive)
GI50 (UACC-257): > 100 µM (inactive)
GI50 (CCRF-CEM): > 100 µM (inactive)
GI50 (U-251): > 100 µM (inactive)
GI50 (SK-MEL-2): > 100 µM (inactive)

— ChEMBL document CHEMBL1201862, “PubChem BioAssay data set” (2004)
